Article PMC8619920, “New Polyesterified Ursane Derivatives from Leaves of Maesa membranacea and Their Cytotoxic Activity” (Molecules, 2021)

Columns and labels:
[1] = Cytotoxicity, LDH assay, PC3 cells; format: cell-based, human; settings: human, PC3 prostate adenocarcinoma cells, 24 h, mean ± SD of three, read-out: Cell viability PC3
Protocol: (§1) Cytotoxic activity was tested on human cancer and normal cells, grouped in three panels, namely: prostate, skin and gastrointestinal. The prostate panel consisted of prostate cancer cell lines Du145 (ATCC HTB-81) and PC3 (ATCC CRL-1435), and prostate epithelial cells PNT-2 (ECACC 95012613). Melanoma cell lines A375 (ATCC CRL-1619) and HTB140 (ATCC Hs 294T) together with skin keratinocytes HaCaT (obtained as a kind gift of prof. Marta Michalik, Department of Cell Biology, Jagiellonian University, Kraków, Poland) were included into the skin panel. The gastrointestinal panel of cells comprised colon cancer cell lines Caco-2 (ATCC HTB-37) and HT29 (ATCC HTB-38). Du145 cells were grown in Modified Eagle’s Medium with low (1.0 g/L) glucose concentration, HT29, PC3 and PNT-2 cells in Dulbecco’s Modified Eagle’s Media: F12 HAM Nutrient Mixture, Caco-2 in Modified Eagle’s Medium with NEAA (no-essential amino acids) while melanoma cells and keratinocytes were maintained in Modified Eagle’s Medium with high (4.5 g/L) glucose concentration. The culture media (all supplied by Sigma-Aldrich Co.; St. Louis, MO, USA) contained antibiotics and 10% fetal bovine serum (FBS). All cultures were maintained at 37 °C, in a humidified, 5% CO2 containing, atmosphere.
(§2) The examined triterpenes were diluted in the culture media from freshly made stock solutions in MeOH (10 mg/mL) to the working concentrations (from 0 to 100 μg/mL).
(§3) Cell viability was determined as it was described previously. Cells suspended in the nutrient medium were transferred into 96-well microtiter plates (density 1.5 × 10^4 per well), and preincubated for 24 h (37 °C, 5% CO2). Then, the culture medium was replaced with the medium containing different concentrations of 1 or 2 (1–100 μg/mL). After 24 h of incubation, viability of the cells was determined using colorimetric lactate dehydrogenase (LDH) assay, in comparison to the controls to which corresponding aliquots of MeOH diluted with culture media were added. Cells grown in the medium without the tested compounds were used as control I (negative) and the positive control (control II) was obtained by incubation of the cells in the medium containing 1% Triton X-100. LDH released from the damaged cells into the cell culture medium was quantified by measuring the absorbance at 490 nm using Synergy II Biotek (BioTek Instruments, Winooski, VT, USA) microplate reader. Cytotoxicities of the examined compounds were calculated as follows: [(absorbance of the tested sample − absorbance of control I)/(absorbance of control II − absorbance of control I)] × 100. Results were means of three independent measurements (± SD). Doxorubicin (Ebewe Pharma GmbH., Unterach, Austria) was used as a reference cytostatic drug. The IC50 values were determined by plotting the percentage viability of the cells versus concentration and the adequate calculations made using AAT Bioquest website program (https://www.aatbio.com/tools/ic50-calculator, accessed on 29 October 2021).

[2] = test system: PC3 human prostate adenocarcinoma cells; assay: Cytotoxicity, LDH assay, PC3 cells; format: cell-based; settings: for IC50: Homo sapiens, PC-3, 24 h
Protocol: as §1, §2, §3

[3] = test system: HaCaT human immortalized keratinocytes; assay: Cytotoxicity, LDH assay, HaCaT cells; format: cell-based; settings: Homo sapiens, HaCaT; 24 h treatment, 5–100 μg/mL
Protocol: as §1, §2, §3

Structure (SMILES) | viability at 24 h, 5 μg/mL [1] | viability at 24 h, 10 μg/mL [1] | viability at 24 h, 20 μg/mL [1] | viability at 24 h, 30 μg/mL [1] | viability at 24 h, 40 μg/mL [1] | viability at 24 h, 50 μg/mL [1] | viability at 24 h, 100 μg/mL [1] | IC50 PC3 ([2]; 24 h treatment, 5–100 μg/mL) | IC50 ([2]; 24 h treatment, 5–100 μg/mL) | IC50 ([2]; 24 h treatment, value in brackets, footnote d) | IC50 [3] | Cell viability PC3 ([2]; 100 μg/mL, 24 h, mean ± SD of three)
CCC(C)C(=O)OC1C=C2C3C(C)C(C)(O)CC(OC(C)=O)C3(C)CCC2(C)C2(C)CC(OC(C)=O)C3C(C)(C)C(O)C(OC(C)=O)CC3(C)C12 (stereo not drawn) [Compound 1, 2α,6β,22α-triacetoxy-11α-(2-methylbutyryloxy)-urs-12-ene-3α,20β-diol] | 96.2 ± 1.04% | 90.7 ± 0.93% | 83.9 ± 1.67% | 74.8 ± 1.17% | 62.6 ± 1.36% | 45.7 ± 1.85% | 28.1 ± 2.31% | 41.64 µg/mL | 41.6 µg/mL | 58.1 µM | > 100 µg/mL | –
CC(=O)OC1CC2(C)C(C(OC(C)=O)CC3(C)C2C(O)C=C2C4C(C)C(C)(O)CC(OC(C)=O)C4(C)CCC23C)C(C)(C)C1O (stereo not drawn) [Compound 2, 2α,6β,22α-triacetoxy-urs-12-ene-3α,11α,20β-triol] | 96.6 ± 1.35% | 94.1 ± 1.24% | 87.9 ± 1.54% | 79 ± 1.1% | 70.3 ± 1.6% | 59 ± 1.81% | 47.1 ± 2.64% | – | > 50 µg/mL | – | > 100 µg/mL | > 47%
